In patent US10155742B2, “Halofuginol derivatives and their use in cosmetic and pharmaceutical compositions” (President and Fellows of Harvard College, priority 2012, dated 2018):

How the values were obtained:
[1] = target: T1, ProRS (amino acids 998-1513 of human EPRS) (Homo sapiens, UniProt P07814); assay: [3H]-HFol binding to immobilized ProRS; settings: FIG. 3A
T1 construct: Purified 6-his tagged ProRS (amino acids 998-1513 of human EPRS) was immobilized on N-NTA beads; made in house; host or cells: E. coli BL21(DE3), plasmid pKS509
T1 sequence (P07814 998-1512 limits assumed): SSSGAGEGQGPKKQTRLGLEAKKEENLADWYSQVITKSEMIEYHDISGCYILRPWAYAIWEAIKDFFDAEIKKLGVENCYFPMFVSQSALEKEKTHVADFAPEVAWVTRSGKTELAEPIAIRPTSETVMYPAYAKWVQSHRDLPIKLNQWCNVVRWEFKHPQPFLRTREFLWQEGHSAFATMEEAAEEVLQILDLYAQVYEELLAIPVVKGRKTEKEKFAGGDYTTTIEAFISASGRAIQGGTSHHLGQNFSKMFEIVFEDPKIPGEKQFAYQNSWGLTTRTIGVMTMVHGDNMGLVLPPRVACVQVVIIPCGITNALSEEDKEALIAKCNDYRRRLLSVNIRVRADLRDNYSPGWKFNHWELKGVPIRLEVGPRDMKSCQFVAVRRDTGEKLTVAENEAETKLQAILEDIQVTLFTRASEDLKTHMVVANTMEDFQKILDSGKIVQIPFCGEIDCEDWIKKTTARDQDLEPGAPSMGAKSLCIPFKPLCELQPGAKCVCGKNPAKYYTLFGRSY
Description: B) [^3H]-HFol binding was assayed as described above in the presence of indicated concentrations of proline. […] IMR90 lung fibroblasts were treated with a siRNAs directed against EPRS (Dharmacon) or a control siRNA mixture for 48 hours, and then treated with HF for 2 hours (pGCN2) and examined for EPRS protein levels, GCN2 total protein and phospho-GCN2 by Western blot. D) EPRS depleted IMR90 cells were compared to control cells with respect to HF induction of the AAR marker CHOP by Q-PCR. Equal concentrations of total cellular protein were loaded in each Western blot lane. CHOP expression was standardized to expression of phosphoglycerate kinase 1 (PGK1) and glyceraldehyde-3-phosphate-dehydrogenase (GAPDH). Data shown are representative of three separate experiments.
Prolyl sulfamoyl adenosine (ProSAd) or alanyl sulfamoyl adenosine (AlaSAd), analogs of the corresponding aminoacyl adenylate, were coincubated with [^3H]-HFol as in FIG. 2. […] Binding of [^3H]-HFol was assayed as in FIG. 3, except that the nucleotide type and concentration was varied as indicated.
To examine HF binding to ProRS, ^3H HFol was synthesized by American Radiochemicals (St. Louis) by reduction of MAZ1310 (3) at the ketone with NaB^3H4, followed by removal of the Boc protecting group with 10% trifluoroacetic acid in dichloromethane, and HPLC purification of the ^3H HFol. 100 nM ^3H HFol was incubated with ProRS immobilized on Ni-NTA beads (Pierce) in 50 mM Tris pH 7.5, 5 mM MgCl2, 20 mM Imidazole, 1 mM DTT, 10% glycerol, and nucleotides, proline, or HF derivatives at room temperature for 10 minutes as indicated. After incubation, beads were washed twice with ice-cold wash buffer (50 mM Tris 7.5; 20 mM Imidazole; 1 mM DTT, 20% glycerol). ^3H HFol bound after washing was measured by liquid scintillation counting. Ni-NTA beads incubated with E. coli extracts lacking tagged ProRS were used as a background reference in all experiments.

[2] = tested on: primary human prostate stromal (hPrSc) cells, s100a4; assay: S100A4 mRNA in primary human prostate stromal cells; type: cell-based; settings: with or without TGF 10 ng/ml, FIG. 28
Description: Primary human prostate stromal (hPrSc) cells were left in low-serum media (0.2%) for 24 hours, and treated consecutively twice for 48 hours with or without tumor-growth factor beta (TGF; 10 ng/ml), halofuginone (HF) or halofuginol (HFol) at the concentrations indicated. Relative mRNA levels of the fibrosis/tissue invasion marker s100a4 was measured by quantitative real-time PCR using glyceraldehyde-3-phosphate dehydrogenase (GAPDH) as internal control.

mTORC1 signaling in MEFs = assay: mTORC1 pathway phosphorylation by Western blot; type: cell-based, mouse; settings: 100 nM HF, FIG. 16
Description: MEFs growing in DME/10% FCS were treated with 100 nM HF or 0.5 μM rapamycin and analyzed by Western blot for phosphorylation of component of the mTor signaling pathway.

[3] = tested on: Th17 cell differentiation (primary murine CD4+ CD25- T cells); settings: from PCT/US08/09774; read-out: 50% inhibition of Th17 cell development; cited from earlier work
[4] = tested on: translation in rabbit reticulocyte lysate (RRL); assay: In vitro translation assay in rabbit reticulocyte lysate (RRL)
[5] = inhibitor 1 μM, anti-myc Western blot, FIG. 2C

Compound: O=C(C[C@H]1NCCC[C@@H]1O)Cn1cnc2cc(Br)c(Cl)cc2c1=O (racemic) [HF, 7-bromo-6-chloro-3-[3-(3-hydroxy-2-piperidinyl)-2-oxopropyl]-4(3H)-quinazolinone]
- competition of [3H]-HFol binding to ProRS [1]: competed
- expression of the activated fibroblast marker S100A4 [2]: inhibit
- inhibition of mTORC1 signaling / downstream targets (mTORC1 signaling in MEFs): without concomitant inhibition
- inhibition of mTORC1 signaling / downstream targets (mTORC1 signaling in MEFs; listed as halofuginone): does not directly inhibit
- IC50 [3]: ~3 nM
- translation of Nopropep (proline-free polypeptide) [4, 5]: no effect
- translation of Propep (proline dipeptide containing polypeptide) [4, 5]: prevent translation
- inhibition of translation of luciferase RNA in RRL ([4]; luminescence assay, FIG. 2A/2B): inhibited
